Legend:
[1] = target: 5-hydroxytryptamine receptor 2A (Rattus norvegicus, UniProt P14842)
[2] = target: T1, Alpha-2C adrenergic receptor (Rattus norvegicus, UniProt P22086)
T1 sequence (P22086 whole entry): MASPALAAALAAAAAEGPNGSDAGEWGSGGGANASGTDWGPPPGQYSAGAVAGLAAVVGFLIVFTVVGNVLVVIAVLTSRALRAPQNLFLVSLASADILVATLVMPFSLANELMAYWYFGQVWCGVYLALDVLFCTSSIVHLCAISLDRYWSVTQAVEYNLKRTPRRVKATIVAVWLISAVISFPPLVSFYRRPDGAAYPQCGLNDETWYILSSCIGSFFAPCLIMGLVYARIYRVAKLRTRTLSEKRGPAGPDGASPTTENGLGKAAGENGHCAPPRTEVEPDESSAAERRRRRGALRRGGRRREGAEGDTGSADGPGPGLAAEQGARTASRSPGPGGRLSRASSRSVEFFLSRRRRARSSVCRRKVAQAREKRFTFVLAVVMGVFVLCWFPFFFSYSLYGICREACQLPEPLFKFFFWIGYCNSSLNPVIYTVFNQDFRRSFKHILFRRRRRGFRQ

[3] = target: T2, Muscarinic acetylcholine receptor M2 (Rattus norvegicus, UniProt P10980)
T2 sequence (P10980 whole entry): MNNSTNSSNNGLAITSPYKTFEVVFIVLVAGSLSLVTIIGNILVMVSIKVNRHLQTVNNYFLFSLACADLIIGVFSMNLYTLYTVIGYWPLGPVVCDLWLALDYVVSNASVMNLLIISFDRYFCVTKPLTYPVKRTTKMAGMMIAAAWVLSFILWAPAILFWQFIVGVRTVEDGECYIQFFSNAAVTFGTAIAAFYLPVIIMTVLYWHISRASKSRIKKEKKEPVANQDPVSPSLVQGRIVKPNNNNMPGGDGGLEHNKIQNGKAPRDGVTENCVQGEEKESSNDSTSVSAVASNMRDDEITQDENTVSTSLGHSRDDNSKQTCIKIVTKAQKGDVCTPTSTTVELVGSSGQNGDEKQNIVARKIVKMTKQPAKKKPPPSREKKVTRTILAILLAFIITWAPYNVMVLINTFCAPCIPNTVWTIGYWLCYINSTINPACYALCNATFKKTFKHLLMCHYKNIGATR

D(3) dopamine receptor = D(3) dopamine receptor (Homo sapiens, UniProt P35462)
[4] = target: Gamma-aminobutyric acid receptor subunit alpha-1 (Rattus norvegicus, UniProt P62813)
[5] = target: Glutamate receptor ionotropic, NMDA 1 (Rattus norvegicus, UniProt P35439)
D(2) dopamine receptor = D(2) dopamine receptor (Homo sapiens, UniProt P14416)
Histamine H1 receptor = Histamine H1 receptor (Rattus norvegicus, UniProt P31390)
Glutamate receptor 3 = Glutamate receptor 3 (Rattus norvegicus, UniProt P19492)
[6] = target: Nicotinic acetylcholine receptor (Rattus leucopus, UniProt Q62594)
[7] = target: Beta-2 adrenergic receptor (Rattus norvegicus, UniProt P10608)
Galanin peptides = target: T3, Galanin peptides (Rattus norvegicus, UniProt P10683)
T3 sequence (P10683 whole entry): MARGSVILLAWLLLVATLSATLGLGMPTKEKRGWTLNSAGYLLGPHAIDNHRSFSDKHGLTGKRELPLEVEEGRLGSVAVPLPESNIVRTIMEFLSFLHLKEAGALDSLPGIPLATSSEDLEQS

D(1A) dopamine receptor = D(1A) dopamine receptor (Rattus norvegicus, UniProt P18901)
Histamine H2 receptor = Histamine H2 receptor (Cavia porcellus, UniProt P47747)
[8] = target: T4, Alpha-1A adrenergic receptor (Rattus norvegicus, UniProt P43140)
T4 sequence (P43140 whole entry): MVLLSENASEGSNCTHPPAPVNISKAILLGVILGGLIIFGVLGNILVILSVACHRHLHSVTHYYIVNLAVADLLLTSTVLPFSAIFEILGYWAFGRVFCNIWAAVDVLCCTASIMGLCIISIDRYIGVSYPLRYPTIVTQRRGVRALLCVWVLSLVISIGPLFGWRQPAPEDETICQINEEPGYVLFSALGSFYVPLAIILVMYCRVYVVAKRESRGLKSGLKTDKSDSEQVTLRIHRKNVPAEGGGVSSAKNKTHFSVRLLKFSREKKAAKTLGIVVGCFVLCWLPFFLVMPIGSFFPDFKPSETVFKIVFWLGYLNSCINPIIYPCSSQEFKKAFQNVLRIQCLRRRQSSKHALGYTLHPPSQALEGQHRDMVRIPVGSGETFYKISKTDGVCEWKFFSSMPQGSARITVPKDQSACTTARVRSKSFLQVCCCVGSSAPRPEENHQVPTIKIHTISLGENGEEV

[9] = target: T5, 5-hydroxytryptamine receptor 1A (Rattus norvegicus, UniProt P19327)
T5 sequence (P19327 whole entry): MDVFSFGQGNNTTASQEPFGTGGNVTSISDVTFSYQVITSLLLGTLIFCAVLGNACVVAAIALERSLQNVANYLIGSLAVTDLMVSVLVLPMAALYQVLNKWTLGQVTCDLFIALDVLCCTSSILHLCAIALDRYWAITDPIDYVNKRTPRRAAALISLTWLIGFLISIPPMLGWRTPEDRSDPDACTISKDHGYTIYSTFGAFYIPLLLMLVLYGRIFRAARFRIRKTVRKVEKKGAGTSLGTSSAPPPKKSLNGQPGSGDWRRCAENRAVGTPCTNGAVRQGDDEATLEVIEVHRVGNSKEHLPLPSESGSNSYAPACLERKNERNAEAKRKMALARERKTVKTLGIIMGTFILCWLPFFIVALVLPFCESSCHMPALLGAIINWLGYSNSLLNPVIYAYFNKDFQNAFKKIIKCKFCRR

[10] = target: 5-hydroxytryptamine receptor 6 (Rattus norvegicus, UniProt P31388)
[11] = target: 5-hydroxytryptamine receptor 7 (Rattus norvegicus, UniProt P32305)
[12] = target: 5-hydroxytryptamine receptor 1B (Rattus norvegicus, UniProt P28564)
Chain of 5-hydroxytryptamine receptor 1B (P28564 whole entry): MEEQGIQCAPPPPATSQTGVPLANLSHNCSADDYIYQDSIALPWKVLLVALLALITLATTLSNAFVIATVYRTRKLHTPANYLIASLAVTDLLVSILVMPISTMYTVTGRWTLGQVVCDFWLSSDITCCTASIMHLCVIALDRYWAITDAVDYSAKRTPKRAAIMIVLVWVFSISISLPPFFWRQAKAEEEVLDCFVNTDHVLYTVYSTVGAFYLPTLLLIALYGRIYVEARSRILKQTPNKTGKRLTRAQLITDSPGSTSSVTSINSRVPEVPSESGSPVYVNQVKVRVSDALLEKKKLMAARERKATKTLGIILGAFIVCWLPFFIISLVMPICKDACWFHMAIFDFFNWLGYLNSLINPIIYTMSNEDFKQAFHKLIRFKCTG

Chain of D(2) dopamine receptor (P14416 whole entry): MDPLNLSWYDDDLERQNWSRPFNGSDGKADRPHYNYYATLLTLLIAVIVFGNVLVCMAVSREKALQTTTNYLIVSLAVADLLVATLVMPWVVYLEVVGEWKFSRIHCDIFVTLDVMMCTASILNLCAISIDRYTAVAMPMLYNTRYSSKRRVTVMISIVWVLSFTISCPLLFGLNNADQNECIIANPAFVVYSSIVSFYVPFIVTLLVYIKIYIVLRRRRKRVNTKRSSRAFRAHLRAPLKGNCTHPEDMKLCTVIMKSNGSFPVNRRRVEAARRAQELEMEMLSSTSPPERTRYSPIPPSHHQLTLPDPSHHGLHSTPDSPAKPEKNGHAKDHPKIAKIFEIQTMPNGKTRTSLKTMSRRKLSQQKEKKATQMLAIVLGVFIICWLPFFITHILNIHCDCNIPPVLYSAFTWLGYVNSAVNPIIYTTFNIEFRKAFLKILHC
Chain of Gamma-aminobutyric acid receptor subunit alpha-1 (P62813 whole entry): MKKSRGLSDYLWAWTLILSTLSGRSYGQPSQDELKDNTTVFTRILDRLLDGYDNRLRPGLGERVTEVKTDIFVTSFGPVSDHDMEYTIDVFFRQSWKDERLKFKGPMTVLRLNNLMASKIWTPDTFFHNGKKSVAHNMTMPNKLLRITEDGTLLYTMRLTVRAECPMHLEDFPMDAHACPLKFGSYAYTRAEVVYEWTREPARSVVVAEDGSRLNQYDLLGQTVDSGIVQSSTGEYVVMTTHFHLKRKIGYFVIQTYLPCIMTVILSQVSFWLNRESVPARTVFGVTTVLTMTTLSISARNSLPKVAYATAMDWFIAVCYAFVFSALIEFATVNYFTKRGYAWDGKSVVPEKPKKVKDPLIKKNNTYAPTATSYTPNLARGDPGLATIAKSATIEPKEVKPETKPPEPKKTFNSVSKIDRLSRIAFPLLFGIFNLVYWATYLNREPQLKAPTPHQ
Chain of Histamine H2 receptor (P47747 whole entry): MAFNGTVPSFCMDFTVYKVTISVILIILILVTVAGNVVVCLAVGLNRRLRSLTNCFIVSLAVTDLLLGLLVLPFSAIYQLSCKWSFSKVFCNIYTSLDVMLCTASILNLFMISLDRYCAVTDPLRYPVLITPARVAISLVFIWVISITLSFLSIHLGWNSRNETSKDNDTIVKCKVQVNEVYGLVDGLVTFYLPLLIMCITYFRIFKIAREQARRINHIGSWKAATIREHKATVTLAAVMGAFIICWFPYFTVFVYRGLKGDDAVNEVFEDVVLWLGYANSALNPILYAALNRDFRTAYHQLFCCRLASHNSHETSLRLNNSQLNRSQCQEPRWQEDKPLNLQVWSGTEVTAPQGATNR
Chain of Beta-2 adrenergic receptor (P10608 whole entry): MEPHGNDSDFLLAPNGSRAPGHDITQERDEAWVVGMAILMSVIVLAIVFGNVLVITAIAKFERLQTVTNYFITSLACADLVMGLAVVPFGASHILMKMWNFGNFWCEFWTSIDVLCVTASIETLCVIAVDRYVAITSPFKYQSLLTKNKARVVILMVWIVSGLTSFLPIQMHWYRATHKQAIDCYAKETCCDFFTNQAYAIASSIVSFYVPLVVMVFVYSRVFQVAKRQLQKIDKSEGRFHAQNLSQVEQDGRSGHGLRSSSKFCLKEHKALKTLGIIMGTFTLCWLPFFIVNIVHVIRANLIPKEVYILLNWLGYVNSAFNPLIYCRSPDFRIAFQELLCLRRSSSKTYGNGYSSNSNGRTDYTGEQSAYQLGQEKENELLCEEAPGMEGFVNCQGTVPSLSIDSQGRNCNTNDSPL
Chain of Glutamate receptor 3 (P19492 whole entry): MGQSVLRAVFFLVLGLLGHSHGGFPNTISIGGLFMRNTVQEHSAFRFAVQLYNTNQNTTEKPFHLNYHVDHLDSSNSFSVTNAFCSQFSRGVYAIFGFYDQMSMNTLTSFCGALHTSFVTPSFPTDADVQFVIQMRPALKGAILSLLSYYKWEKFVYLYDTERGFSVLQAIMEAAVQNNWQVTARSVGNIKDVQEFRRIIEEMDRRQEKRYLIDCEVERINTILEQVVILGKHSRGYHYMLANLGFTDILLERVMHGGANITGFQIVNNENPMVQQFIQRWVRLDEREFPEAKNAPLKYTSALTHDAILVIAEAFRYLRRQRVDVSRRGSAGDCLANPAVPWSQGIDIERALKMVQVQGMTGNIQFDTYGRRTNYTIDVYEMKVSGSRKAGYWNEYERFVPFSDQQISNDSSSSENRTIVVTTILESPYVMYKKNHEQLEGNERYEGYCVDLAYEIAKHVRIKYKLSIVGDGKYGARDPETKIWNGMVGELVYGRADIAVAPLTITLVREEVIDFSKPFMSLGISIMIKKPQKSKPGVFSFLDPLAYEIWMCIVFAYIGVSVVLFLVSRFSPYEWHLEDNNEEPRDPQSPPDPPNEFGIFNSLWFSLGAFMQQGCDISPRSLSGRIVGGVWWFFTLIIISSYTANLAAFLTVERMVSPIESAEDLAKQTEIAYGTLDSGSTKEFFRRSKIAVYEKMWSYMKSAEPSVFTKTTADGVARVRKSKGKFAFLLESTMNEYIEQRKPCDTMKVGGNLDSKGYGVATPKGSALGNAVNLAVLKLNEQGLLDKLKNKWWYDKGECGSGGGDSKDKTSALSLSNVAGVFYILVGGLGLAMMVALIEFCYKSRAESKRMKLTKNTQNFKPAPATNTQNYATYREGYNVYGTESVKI
Chain of D(3) dopamine receptor (P35462 as listed by the source): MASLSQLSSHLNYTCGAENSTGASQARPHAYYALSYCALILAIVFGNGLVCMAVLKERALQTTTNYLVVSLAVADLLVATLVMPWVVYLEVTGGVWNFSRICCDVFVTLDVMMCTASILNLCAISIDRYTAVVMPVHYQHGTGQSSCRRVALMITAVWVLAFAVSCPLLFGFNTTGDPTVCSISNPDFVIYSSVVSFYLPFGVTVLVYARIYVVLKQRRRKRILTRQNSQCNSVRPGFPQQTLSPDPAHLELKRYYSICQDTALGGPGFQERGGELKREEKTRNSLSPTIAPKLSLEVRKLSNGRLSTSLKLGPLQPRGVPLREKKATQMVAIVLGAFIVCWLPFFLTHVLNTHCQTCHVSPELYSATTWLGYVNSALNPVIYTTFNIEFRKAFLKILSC
Chain of Histamine H1 receptor (P31390 whole entry): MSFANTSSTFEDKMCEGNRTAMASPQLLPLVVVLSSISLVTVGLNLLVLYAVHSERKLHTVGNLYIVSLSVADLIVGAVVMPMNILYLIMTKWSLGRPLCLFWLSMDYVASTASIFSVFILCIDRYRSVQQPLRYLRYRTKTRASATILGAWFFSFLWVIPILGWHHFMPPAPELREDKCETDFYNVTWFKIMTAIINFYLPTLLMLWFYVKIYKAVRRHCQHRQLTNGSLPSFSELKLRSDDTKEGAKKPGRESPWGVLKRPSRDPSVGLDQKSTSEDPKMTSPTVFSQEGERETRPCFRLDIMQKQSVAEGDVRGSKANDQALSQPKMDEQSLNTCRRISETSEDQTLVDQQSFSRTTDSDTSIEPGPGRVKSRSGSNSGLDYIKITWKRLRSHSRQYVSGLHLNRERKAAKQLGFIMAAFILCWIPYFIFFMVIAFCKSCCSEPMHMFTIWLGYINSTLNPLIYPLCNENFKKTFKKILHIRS
Chain of D(1A) dopamine receptor (P18901 whole entry): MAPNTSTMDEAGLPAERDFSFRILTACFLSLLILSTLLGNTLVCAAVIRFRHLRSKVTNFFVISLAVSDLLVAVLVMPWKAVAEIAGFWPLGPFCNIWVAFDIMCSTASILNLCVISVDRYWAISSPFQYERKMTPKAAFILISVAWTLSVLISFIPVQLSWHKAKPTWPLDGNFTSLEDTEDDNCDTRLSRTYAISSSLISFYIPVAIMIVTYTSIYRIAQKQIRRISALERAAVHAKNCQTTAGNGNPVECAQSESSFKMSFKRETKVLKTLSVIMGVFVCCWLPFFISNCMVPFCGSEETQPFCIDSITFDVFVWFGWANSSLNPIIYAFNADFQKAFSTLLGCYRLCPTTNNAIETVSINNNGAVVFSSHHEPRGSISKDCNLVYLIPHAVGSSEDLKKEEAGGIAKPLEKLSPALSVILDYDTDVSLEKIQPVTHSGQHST
Chain of Nicotinic acetylcholine receptor (Q62594 whole entry): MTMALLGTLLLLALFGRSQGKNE
Chain of 5-hydroxytryptamine receptor 2A (P14842 whole entry): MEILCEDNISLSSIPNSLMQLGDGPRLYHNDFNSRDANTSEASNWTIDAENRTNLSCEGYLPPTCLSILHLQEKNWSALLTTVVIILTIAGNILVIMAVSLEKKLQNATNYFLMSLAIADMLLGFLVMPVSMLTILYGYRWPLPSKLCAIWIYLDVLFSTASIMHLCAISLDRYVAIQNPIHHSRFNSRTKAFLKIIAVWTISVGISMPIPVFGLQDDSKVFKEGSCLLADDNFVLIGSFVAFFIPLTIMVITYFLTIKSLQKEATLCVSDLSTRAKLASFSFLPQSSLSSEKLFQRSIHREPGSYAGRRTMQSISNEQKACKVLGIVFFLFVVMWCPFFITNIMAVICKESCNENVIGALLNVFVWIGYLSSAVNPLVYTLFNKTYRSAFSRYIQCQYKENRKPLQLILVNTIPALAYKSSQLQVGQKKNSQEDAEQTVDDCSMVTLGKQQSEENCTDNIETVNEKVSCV

Row | Compound | Ki [1] | Ki [2] | Ki [3] | Ki (D(3) dopamine receptor) | Ki [4] | Ki [5] | Ki (D(2) dopamine receptor) | Ki (Histamine H1 receptor) | Ki (Glutamate receptor 3) | Ki [6] | Ki [7] | Ki (Galanin peptides) | Ki (D(1A) dopamine receptor) | Ki (Histamine H2 receptor) | Ki [8] | Ki [9] | Ki [10] | Ki [11] | Ki [12]
1 | COc1ccccc1N1CCN(CCN(C(=O)C2CCCCC2)c2ccccn2)CC1 | 1100 nM | 1000 nM | 1000 nM | 67 nM | > 10000 nM | > 10000 nM | 79 nM | > 10000 nM | > 10000 nM | > 10000 nM | 1000 nM | 2600 nM | 1000 nM | > 10000 nM |  |  |  |  | 
2 | NC(=O)c1ccc(F)c2c1CC(N(C1CCC1)C1CCC1)CO2 (stereo not drawn) [CAS_3055171] | > 10000 nM | 1000 nM | 1000 nM | 1000 nM | > 10000 nM | > 10000 nM | 1000 nM | > 10000 nM | > 10000 nM | > 10000 nM | 340 nM | 2600 nM | 1000 nM | > 10000 nM | 260 nM | 0.59 nM | > 10000 nM | 1900 nM | 1000 nM

Reference: BindingDB's records for PubMed 9336327 (Preclinical R & D, Astra Arcus, 1997)
